From the supplement of paper PMC10307832

Columns and labels:
Test in all cases: relative viability (nuclei count vs DMSO), 5 days (fraction); higher = more cells survive
Tosedostat + Luminespib = compound: CC(C)C[C@@H](C(=O)N[C@H](C(=O)OC1CCCC1)c1ccccc1)[C@H](O)C(=O)NO [Tosedostat] + CCNC(=O)c1noc(-c2cc(C(C)C)c(O)cc2O)c1-c1ccc(CN2CCOCC2)cc1 [Luminespib] (partner 0.01 µM)
Outline: (§1)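 Values are medians from duplicate plates. Each reflects relative viability, defined as the nuclei count of treated wells over that of vehicle wells. Lung cancer cell lines in 1536-well plates were pin-tool dosed one day after seeding with one drug alone or with a fixed anchor-drug dose plus five library-drug doses (not always all listed) in √10 steps, then fixed, stained and imaged at 4× after 5 days.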

Tosedostat + Pictilisib = compound: CC(C)C[C@@H](C(=O)N[C@H](C(=O)OC1CCCC1)c1ccccc1)[C@H](O)C(=O)NO [Tosedostat] + CS(=O)(=O)N1CCN(Cc2cc3nc(-c4cccc5[nH]ncc45)nc(N4CCOCC4)c3s2)CC1 [Pictilisib] (partner 1 µM)
Outline: as §1

[1] = compound: CC1=NN=C(O1)C2=NN=C(C=C2)N3CCC(CC3)OC4=C(C=CC(=C4)F)Cl + COc1cccc2cc(-c3nc([C@H]4CC[C@H](C(=O)O)CC4)n4ncnc(N)c34)[nH]c12 [OSI-027] (partner 0.5 µM)
Outline: as §1

[2] = compound: CC1=NN=C(O1)C2=NN=C(C=C2)N3CCC(CC3)OC4=C(C=CC(=C4)F)Cl + NC(=O)Nc1cc(-c2cccc(F)c2)sc1C(=O)N[C@H]1CCCNC1 [AZD7762] (partner 0.2 µM)
Outline: as §1

Cell Line	relative viability (Tosedostat + Luminespib; first compound 0.02 µM)	relative viability (Tosedostat + Luminespib; first compound 0.06325 µM)	relative viability (Tosedostat + Luminespib; first compound 0.2 µM)	relative viability (Tosedostat + Luminespib; first compound 0.6325 µM)	relative viability (Tosedostat + Luminespib; first compound 2 µM)	relative viability (Tosedostat + Pictilisib; first compound 0.02 µM)	relative viability (Tosedostat + Pictilisib; first compound 0.06325 µM)	relative viability (Tosedostat + Pictilisib; first compound 0.2 µM)	relative viability (Tosedostat + Pictilisib; first compound 0.6325 µM)	relative viability (Tosedostat + Pictilisib; first compound 2 µM)	relative viability ([1]; first compound 0.253 µM)	relative viability ([1]; first compound 0.8 µM)	relative viability ([1]; first compound 2.53 µM)	relative viability ([1]; first compound 8 µM)	relative viability ([2]; first compound 0.253 µM)	relative viability ([2]; first compound 0.8 µM)	relative viability ([2]; first compound 2.53 µM)	relative viability ([2]; first compound 8 µM)
201T	0.969	1.2	1.14	1.24	1.18	0.669	0.682	0.788	0.78	0.762	0.383	0.536	0.583	0.504	0.447	0.481	0.531	0.505
A549						0.606	0.513	0.495	0.469	0.521								
A-427	0.882	0.739	1.01	0.919	1.08	0.736	0.643	0.727	0.662	0.564	0.498		0.428	0.404	0.726	0.526	0.824	0.724
ABC-1	0.622	0.706	0.596	0.647	0.398	1	0.622	0.616	0.722	0.535	0.244	0.326	0.411	0.47	0.852	0.712	0.597	0.45
BEN	0.467	0.387	0.264	0.435	0.248	0.679	0.622	0.556	0.752	0.804	0.309	0.28	0.309	0.318	0.681	0.752	0.878	0.729
CAL-12T	0.364	0.304	0.834	0.713	0.353	0.471	0.417	0.422	0.484	0.423	0.54	0.705	0.668	0.513	0.637	0.586	0.606	0.479
COR-L23	0.792	0.729	0.687	0.698	0.504	0.955	0.784	0.666	0.649	0.745	0.654	0.558	0.586	0.389				
COR-L 105	0.693	0.726	0.835	0.733	0.693	0.451	0.414	0.379	0.319	0.356	0.702	0.687	0.908	0.769				
Calu-6						0.975	0.87	0.778	0.757	0.651								
ChaGo-K-1	0.648	0.598	0.836	0.572	0.491	1.1	0.813	0.754	0.812	0.638	0.506	0.422	0.597	0.398	0.588	0.529	0.705	0.594
EBC-1						0.361	0.417	0.232	0.266	0.281								
EKVX	0.796	0.884	0.853	0.784	0.806	0.45	0.423	0.444	0.398	0.431	0.481	0.465	0.362	0.423	0.517	0.434	0.465	0.535
EMC-BAC-2	1.26	1.06	1.17	1.15	0.986	0.614	0.544	0.504	0.544	0.526	0.441	0.382	0.354	0.417	1.07	0.929	1.1	1.03
EPLC-272H	0.246	0.265	0.278	0.285	0.225	0.416	0.337	0.284	0.3	0.241	0.283	0.248	0.26	0.298	0.236	0.369	0.268	0.197
H3255	1.02	0.807	0.906	0.683	0.75	0.659	0.45	0.409	0.42	0.533	0.578	0.581	0.545	0.511	0.633	0.663	0.628	0.639
HARA	0.683	0.554	0.766	0.481	0.779	0.375	0.432	0.314	0.376	0.348	0.404	0.206	0.359	0.348	0.416	0.305	0.387	0.337
HCC-15	0.408	0.269	0.78	0.211	0.308	0.777	0.731	0.638	0.572	0.501	0.605	0.573	0.532	0.522	0.733	0.571	0.639	0.608
HCC-44	1.29	0.987	0.985	0.957	0.834	0.666	0.689	0.527	0.695	0.378	0.391	0.53	0.344	0.389	0.388	0.609	0.495	0.452
HCC-78						0.202	0.226	0.212	0.221	0.197	0.414	0.369	0.348	0.335	0.457	0.483	0.463	0.373
HCC-366						0.167	0.154	0.0818	0.151	0.103	0.32	0.399	0.393	0.407	0.118	0.144	0.225	0.173
HCC-827	0.587	0.73	0.651	0.362	0.695	1.02	0.991	1.3	0.885	1.09	0.602	0.362	0.653	0.591	0.299	0.158	0.213	0.2
HOP-62	1.01	0.894	0.925	0.919	0.817	0.94	0.676	0.717	0.487	0.867	0.762	0.579	0.771	0.555	0.556	0.22	0.452	0.228
IA-LM						0.447	0.308	0.36	0.302	0.403								

Cell Line	relative viability (Tosedostat + Luminespib; first compound 0.02 µM)	relative viability (Tosedostat + Luminespib; first compound 0.06325 µM)	relative viability (Tosedostat + Luminespib; first compound 0.2 µM)	relative viability (Tosedostat + Luminespib; first compound 0.6325 µM)	relative viability (Tosedostat + Luminespib; first compound 2 µM)	relative viability (Tosedostat + Pictilisib; first compound 0.02 µM)	relative viability (Tosedostat + Pictilisib; first compound 0.06325 µM)	relative viability (Tosedostat + Pictilisib; first compound 0.2 µM)	relative viability (Tosedostat + Pictilisib; first compound 0.6325 µM)	relative viability (Tosedostat + Pictilisib; first compound 2 µM)	relative viability ([1]; first compound 0.253 µM)	relative viability ([1]; first compound 0.8 µM)	relative viability ([1]; first compound 2.53 µM)	relative viability ([1]; first compound 8 µM)	relative viability ([2]; first compound 0.253 µM)	relative viability ([2]; first compound 0.8 µM)	relative viability ([2]; first compound 2.53 µM)	relative viability ([2]; first compound 8 µM)
LC-2-ad	1.2	1.05	0.923	0.792	0.891	0.269	0.429	0.661	0.458	0.455	0.689	0.678	0.632	0.682	0.394	0.391	0.398	0.379
LCLC-97TM1	0.775	0.81	0.688	0.644	0.652	0.177			0.147	0.186	0.523	0.391	0.472	0.508	0.264		0.235	0.205
LCLC-103H	1.04	0.932	1.04	0.998	0.9	0.733	0.567	0.666	0.714	0.54	0.372	0.426	0.426	0.385	0.62	0.657	0.633	0.631
LK-2	0.175	0.21	0.167	0.221	0.214	0.613	0.583	0.576	0.606	0.812	0.265	0.23	0.311	0.234	0.622	0.366	0.308	0.294
LOU-NH91	0.377	0.454	0.313	0.306	0.322	0.594	0.53	0.568	0.495	0.501	0.693	0.645	0.706	0.69		0.715	0.816	0.717
NCI-H520	0.172	0.252	0.209	0.291	0.225	0.261	0.277	0.3	0.283	0.396	0.336		0.337	0.244				
NCI-H522	1.29	1.27	1.23	1.41	1.27						0.725	0.659	0.699	0.693	0.9	0.879	0.857	0.715
NCI-H661	0.958	0.957	0.977	0.909	0.885	0.399	0.444	0.366	0.432	0.301	0.633	0.588	0.528	0.484				
NCI-H1299						0.813	0.77	0.646	0.485	0.316								
NCI-H1563	0.575	0.52	0.5	0.648	0.492	0.636	0.657	0.708	0.712	0.616	0.772	0.854	0.77	0.834				
NCI-H1623	0.51	0.622	0.607	0.538	0.607						0.36	0.457	0.392	0.429				
NCI-H1648											0.256	0.253	0.279	0.271	0.434	0.532	0.6	0.503
NCI-H1650	0.185	0.179	0.205	0.19	0.174	0.696	0.599	0.652	0.645	0.558		0.472	0.626	0.615				
NCI-H1703						0.229	0.253	0.268	0.222	0.245					0.097	0.129	0.153	0.0983
NCI-H2009	1.12	1	1.05	0.97	1.04	1.14	0.841	0.682	0.732	0.524	0.673	0.618	0.605	0.564				
NCI-H2023	0.912	0.628	0.796	0.571	0.614	0.247	0.233	0.251	0.139	0.198	0.33	0.35	0.35	0.314				
NCI-H2228	0.149	0.132	0.198	0.188	0.12	0.438	0.492	0.347	0.354	0.217	0.41	0.448	0.302	0.468				
NCI-H2342	0.686	0.732	0.806	0.859	0.883						0.57	0.531	0.515	0.522	0.417	0.415	0.479	0.299
SK-LU-1	0.213	0.211	0.217	0.2	0.188	0.688	0.728	0.505	0.604	0.485	0.3		0.247	0.199				
SK-MES-1	0.813	0.813	0.898	0.789	0.74	0.382	0.317	0.381	0.315	0.311	0.558	0.583	0.601	0.487				
SW 900	0.175	0.182	0.19	0.17	0.155								0.637	0.41		0.563	0.596	0.66
SW 1573	0.219	0.215	0.456	0.411	0.277	0.477	0.485	0.484	0.485	0.388	0.643	0.52	0.562	0.4				
